The results in this text go back to PMC8141073, “Structurally Diverse Sesquiterpenoids with Anti-neuroinflammatory Activity from the Endolichenic Fungus Cryptomarasmius aucubae” (Natural Products and Bioprospecting, 2021).

As usually defined, the IC50 is the point on the concentration scale where inhibition reaches its midpoint. For orientation: inhibition means the change of the read-out against control, counted positive when it falls. A low value points to a response near the control. Broadly, the viability is a read-out of living cells in per cent, often relative to untreated cells.

The test system of data set [1] is NO production induced by LPS in BV-2 microglial cells. Put plainly: Nitric oxide (NO) production inhibitory assay (Griess reaction). Format: cell-based, murine. To be noted: for anti-inflammatory activity (reducing the release of NO), in words / inhibition at 20 µM: LPS-induced BV-2 microglial cells; for IC50 / inhibition at 20 µM: Mus musculus; for IC50: LPS (1 μg/mL)-induced BV-2 microglial cells, 24 h, 0.1–20.0 μM, read-out: IC50, inhibition of NO production. As for the experimental part:
BV-2 cells were seeded into 96-well plates at 2 × 10^4 cells/100 μL of medium and incubated for 24 h. Then, cells were treated with 1 μg/mL of lipopolysaccharide (LPS) and various concentrations (0.1–20.0 μM) of test compounds (DMSO as solvent) for 24 h. An equal amount of DMSO and LPS were served as the controls; quercetin (J&K Scientific, Beijing, China) was taken as the positive control). The NO concentration in the medium was measured by using a Nitric Oxide Assay Kit, according to the accumulated levels of nitrite in the supernatants by a standard Griess reaction. As follows, 50 μL of the culture supernatant of BV-2 cells was reacted with 50 μL of Griess reagent I and Griess regent II successively in a 96-well plate. The absorbance at 570 nm of the mixture was measured using a microplate reader. IC50 values were calculated as the concentrations that reduced NO production by 50%. Quercetin was taken as the positive control.
For orientation: The Griess reaction detects nitrite, a stable product of nitric oxide.

Data set [2] is described as follows: Cell viability by MTT assay. In kind it is cell-based, murine. To be noted: mouse, BV-2 microglial cells, percentage of the LPS-only treatment group, compounds at 20 μM, 1 μg/mL LPS, BV-2 cells. As for the experimental part:
BV-2 murine microglial cells, acquired from Peking Union Medical College Cell Bank, were cultured in Dulbecco’s modified Eagle’s medium supplemented with 10% (v/v) heat-inactivated fetal bovine serum, penicillin (100 U/mL), and streptomycin ([…]) in carbon dioxide cell incubator. When cell growth density outnumbered 90%, BV-2 cells were seeded in 96-well plates at a density of 2 × 10^4/well, 100 μL) and incubated for 24 h. Next, the cells were treated with the compounds (DMSO as solvent) at 20 μM for 24 h in DMEM with 1 μg/mL LPS. Cells treated with DMSO alone were used as the negative control. After adding 20 μL of 10 mg/mL MTT reagent to each well, the samples were shaken lightly and incubated at 37 °C for 4 h. The supernatant was removed, the blue-purple crystals were fully dissolved in DMSO (200 μL), and the absorbance of each well was read at 570 nm (Tecan Sunrise, Switzerland). Percentage of cell viability is calculated as: (absorbance of treated well/absorbance of control well) × 100%.

Bounds are passed on as bounds.

With `CC(=O)OCC1(C)CC2=C(C)C3(OC(C)=O)CCC3(C)CC2C1` (centres unmarked) [Compound 1, sterpurol D], in data set [1], the “anti-inflammatory activity (reducing the release of NO), in words” value is recorded as “moderate anti-inflammatory activity”; the concentration for half-maximal inhibition (IC50) amounted to 14.8 ± 2.23 µM; the inhibition at 20 µM turned out to be 75.9%. Moreover, the viability at 24 h, 20 µM in data set [2] is 103 ± 4.73%.
For the compound `CC(=O)O[C@@]12C[C@H](O)[C@]1(C)C[C@H]1C[C@@](C)(CO)CC1=C2C` [Compound 2, sterpurol E], in data set [1], the “anti-inflammatory activity (reducing the release of NO), in words” value is reported as “moderate anti-inflammatory activity”; the IC50 was 9.93 ± 0.99 µM; at 20 µM the inhibition was 85.4%. In addition, the viability at 24 h, 20 µM in data set [2] came out at 97.1 ± 4%.
As for `CC1=C2C[C@](C)(CO)C[C@@H]2C[C@@]2(C)CC[C@@]12O` [Compound 4, sterpurol A], in data set [1], the “anti-inflammatory activity (reducing the release of NO), in words” value is reported as “moderate anti-inflammatory activity”; the IC50 came to 15.3 ± 1.43 µM; testing at 20 µM gave an inhibition of 73.1%. Also, in data set [2], the viability at 24 h, 20 µM turned out to be 98.7 ± 1.18%.
In the case of `CC(=O)O[C@@]12CC[C@]1(C)C[C@H]1C[C@@](C)(CO)CC1=C2C` [Compound 5, sterpurol B], in data set [1], the “anti-inflammatory activity (reducing the release of NO), in words” value is on record as “significant anti-inflammatory activity”; the IC50 turned out to be 9.06 ± 1.13 µM; 20 µM produced 99.3% inhibition. Further, the viability at 24 h, 20 µM in data set [2] was found to be 107 ± 2.73%.
For `CC1=C2C[C@@](C)(C(=O)O)C[C@H]2C[C@](C)(O)C12CC2` [Compound 6, paneolilludinic acid], in data set [1], the “anti-inflammatory activity (reducing the release of NO), in words” value was “moderate anti-inflammatory activity”; the IC50 came out at 11.5 ± 0.58 µM; at 20 µM the inhibition was 79.1%. Moreover, in data set [2], the viability at 24 h, 20 µM stood at 104 ± 2.67%.
Regarding `CC1=CC2C(C[C@H]1O)[C@@](C)(O)CC[C@H]2C(C)C` (stereo partly drawn) [Compound 7, murolane-2α, 9β-diol-3-ene], in data set [1], the IC50 was > 20 µM and at 20 µM the inhibition was 51.7%.
In the case of `C/C(=C\CO)CC/C=C(\C)CC[C@@H](O)C(C)(C)O` [Compound 8, (–)-10,11-dihydroxyfarnesol], in data set [1], the “anti-inflammatory activity (reducing the release of NO), in words” value is listed as “moderate anti-inflammatory activity”; the concentration for half-maximal inhibition (IC50) turned out to be 12.2 ± 0.4 µM; the inhibition at 20 µM is 76.8%. In addition, in data set [2], the viability at 24 h, 20 µM is 99.12 ± 0.18%.
With `O=c1c(O)c(-c2ccc(O)c(O)c2)oc2cc(O)cc(O)c12` [Quercetin, quercetin, reference compound], in data set [1], the IC50 came out at 9.75 ± 0.79 µM and the inhibition at 20 µM is 95.6%. Moreover, in data set [2], the viability at 24 h, 20 µM amounted to 101.5 ± 0.83%.
